PubChem BioAssay AID1963986 (Molecular Pharmacology Branch, DTP, NCI, 2024)
Where “and” joins values, the source holds several entries; their conditions need not be identical. Equal values may be shown once.

System: 171881-019-R-J1-PDC tumor spheroid viability
Assay: Anticancer human tumor 171881-019-R-J1-PDC patient-derived invasive breast carcinoma cell line growth inhibition [PI3K]
Settings: spheroids with HUVEC and MSC; for viability, T/C: stronger effect = lower value; for IC50: curve of compound
Method in brief: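 Stroma-containing spheroids: tumor line, pooled-donor HUVEC, hMSC. Treatments: targeted agents with PI3K inhibitors. Dosing: clinically relevant, half-log spacing, 10 microM ceiling without known Cmax. Read-out: cell viability.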
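Note: spheroids exposed to compound for 7 days before viability read.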
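Throughout, for viability, T/C: 100% = DMSO vehicle-treated spheroids.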

IC50	SMILES	viability, T/C (compound 0.0316 µM)	viability, T/C (compound 0.1 µM)	viability, T/C (compound 0.316 µM)	viability, T/C (compound 1 µM)	viability, T/C (compound 3.16 µM)	viability, T/C (compound 10 µM)	viability, T/C (compound 0.000316 µM)	viability, T/C (compound 0.001 µM)	viability, T/C (compound 0.00316 µM)	viability, T/C (compound 0.01 µM)
5.64 µM [middle of 4 runs]	CCCS(=O)(=O)Nc1ccc(F)c(C(=O)c2c[nH]c3ncc(-c4ccc(Cl)cc4)cc23)c1F	91.5% [middle of 4 runs]	91.1% [middle of 4 runs]	101% (2×) and 103% and 90.9%	99.5% [middle of 4 runs]	89.8% [middle of 4 runs]	16.1% [middle of 4 runs]	–	–	–	–
> 100 nM	Cn1ncnc1[C@H]1c2n[nH]c(=O)c3cc(F)cc(c23)N[C@@H]1c1ccc(F)cc1	97.7% [middle of 4 runs]	87% [middle of 4 runs]	–	–	–	–	92.5% [middle of 4 runs]	93.2% [middle of 4 runs]	97.5% [middle of 4 runs]	98.2% [middle of 4 runs]
